{"source": "paper PMC7000732", "about": "“Bridging non-overlapping reads illuminates high-order epistasis between distal protein sites in a GPCR” (Nature Communications, 2020)", "origin": "cited, not measured here", "set-up": "method as in doi:10.1016/0584-8539(95)01421-P", "settings": "cited from earlier work", "data": [{"smiles": "O=C1OC2(c3ccc(O)cc3Oc3cc(O)ccc32)c2ccccc21", "note": "[Fluorescein]", "values": [{"measurement": "pKa of the dianion", "result": 6.43}]}]}
